{"source": "patent US20080194466A1", "about": "“(5Z)-5-(6-Quinoxalinylmethylidene)-2-[(2,4,6-Trichlorophenyl)Amino]-1,3-Thiazol-4(5H)-One” (priority 2005, published 2008)", "key": {"hYAK3 kinase enzyme": {"biological_target": "T1, hYAK3 kinase enzyme (Homo sapiens, UniProt O43781)", "T1 sequence (O43781 1-588)": "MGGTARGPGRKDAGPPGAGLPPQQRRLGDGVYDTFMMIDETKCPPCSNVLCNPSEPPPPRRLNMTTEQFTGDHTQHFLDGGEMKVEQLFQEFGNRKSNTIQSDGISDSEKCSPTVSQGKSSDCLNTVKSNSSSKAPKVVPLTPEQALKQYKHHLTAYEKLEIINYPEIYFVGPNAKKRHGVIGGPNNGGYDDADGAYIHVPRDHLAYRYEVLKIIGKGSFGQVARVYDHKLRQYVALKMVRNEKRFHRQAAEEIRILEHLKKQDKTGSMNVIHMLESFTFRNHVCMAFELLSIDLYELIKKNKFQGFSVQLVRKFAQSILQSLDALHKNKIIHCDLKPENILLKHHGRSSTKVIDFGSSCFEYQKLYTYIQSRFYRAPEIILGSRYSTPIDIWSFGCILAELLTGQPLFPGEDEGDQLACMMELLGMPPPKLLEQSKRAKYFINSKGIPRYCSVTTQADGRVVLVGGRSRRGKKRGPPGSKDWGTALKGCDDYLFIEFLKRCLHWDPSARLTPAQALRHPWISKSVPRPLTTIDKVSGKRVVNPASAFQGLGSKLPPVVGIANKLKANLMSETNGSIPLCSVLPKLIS", "experiment": "in vitro hYAK3 kinase enzyme inhibition", "type": "biochemical", "settings": "in vitro assays; compared with Compound B and Compound C", "procedure": "Compound A is tested for its ability to inhibit the hYAK3 kinase enzyme by known methods such as those described in International Application No. PCT/US2003/037658."}, "[1]": {"experiment": "Oral bioavailability (blood exposure, DNAUC) in rats", "type": "in vivo, male Sprague-Dawley rats", "settings": "for Oral DNAUC rats (Sprague-Dawley): sodium salts, oral gavage, dose ~1-4 mg/kg, 50% PEG-400, 10% ethanol, 40% of 40% (w/v) aqueous Encapsin, blood, LC/MS/MS, 0-1440 min", "procedure": "The sodium salt of Compound A was fed to male Sprague-Dawley rats by oral gavage in a formulation with 50% PEG-400, 10% ethanol, 40% of 40% (w/v) aqueous Encapsin in water at a dose of between 1 and 4 mg/kg (16 mL of dose solution per kg). Blood (120 microliters) was sampled at the following time intervals: 0, 20, 40, 60, 120, 180, 240, 360, 480, and 1440 min. The concentration of Compound A was quantified by LC/MS/Ms analysis of an aliquot (25 microliters blood+25 microliters water) of these samples and the overall blood exposure reported as the Dose-Normalised Area Under the Curve (DNAUC) from a concentration versus time plot and expressed in the units microgram hours per milliliter per […] per kilogram (ug.h/mL/mg/kg). The oral exposures of the sodium salt of Compound B and the sodium salt of Compound C were quantified by the same method."}}, "note": "Counter-ions that a name gives are not always drawn.", "data": [{"smiles": "O=C1NC(=Nc2c(Cl)cc(Cl)cc2Cl)S/C1=C\\c1ccc2nccnc2c1", "note": "[Compound A, (5Z)-5-(6-quinoxalinylmethylidene)-2-[(2,4,6-trichlorophenyl)amino]-1,3-thiazol-4(5H)-one]", "values": [{"measurement": "hYAK3 kinase enzyme inhibition activity", "setting": "hYAK3 kinase enzyme", "value": "activity similar to Compound B (described herein) and Compound C"}, {"measurement": "bioavailability in vivo", "setting": "[1]; compared with the most closely related compounds of PCT/US2003/037658", "value": "significantly greater bioavailability in vivo"}]}, {"smiles": "O=C1N=C(Nc2c(Cl)cc(Cl)cc2Cl)S/C1=C\\c1ccc2nccnc2c1.[Na]", "note": "[Compound A•Na, (5Z)-5-(6-quinoxalinylmethylidene)-2-[(2,4,6-trichlorophenyl)amino]-1,3-thiazol-4(5H)-one sodium salt]", "values": [{"measurement": "Oral DNAUC rats (Sprague-Dawley)", "setting": "[1]", "value": 26.11, "unit": "ug · h/mL/min/kg"}]}, {"smiles": "O=C1NC(=Nc2c(Cl)cccc2Cl)S/C1=C\\c1ccc2ncccc2c1", "note": "[Compound B•Na, 2-(2,6-dichloro-phenylimino)-5-(quinolin-6-ylmethylene)-thiazolidin-4-one sodium salt, reference compound]", "values": [{"measurement": "Oral DNAUC rats (Sprague-Dawley)", "setting": "[1]", "value": 0.49, "unit": "ug · h/mL/min/kg"}]}, {"smiles": "O=C1NC(=Nc2ccccc2Cl)S/C1=C\\c1ccc2nccnc2c1", "note": "[C•Na, 2-(2-chloro-phenylimino)-5-(quinoxalin-6-ylmethylene)-thiazolidin-4-one sodium salt, reference compound]", "values": [{"measurement": "Oral DNAUC rats (Sprague-Dawley)", "setting": "[1]", "value": 0.34, "unit": "ug · h/mL/min/kg"}]}]}
